Measurements published in US20230085307A1, “PYRIDAZINONE COMPOUND AND HERBICIDE” (NISSAN CHEMICAL CORPORATION, priority 2019, published 2023).

system: chickweed; test: Test Example 4: herbicidal effect by soil treatment (Table 19, symbol P); format: in vivo, common chickweed (Stellaria media); conditions: amount of applied herbicide 320 g/ha
Procedure, shortened: (§1)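 Three weeks of greenhouse growth at 25° C. to 30° C. followed a uniform surface spray of water-diluted emulsion at a predetermined herbicide amount. Seeds had been sown beforehand under about 1.5 cm of sterilized diluvial soil. Grading followed criteria set out in an earlier test.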

SMILES | herbicidal effect on P: chickweed
Cc1nn(C)c(=O)c(-c2c(-c3ccc([S+]([O-])C(C)C)cc3)sc3ccc(F)cc23)c1O (stereo not shown) [2-257] | 4 (Herbicidal rate of 70% or more and less than 90%)
Cc1nn(C)c(=O)c(-c2c(-c3ccc(S(C)(=O)=O)cc3)sc3ccc(F)cc23)c1O [2-258] | 4 (Herbicidal rate of 70% or more and less than 90%)

system: redroot pigweed; test: Test Example 5: herbicidal effect by foliage application, plastic box (Table 20, symbol N); format: in vivo, redroot pigweed (Amaranthus retroflexus); conditions: foliage application, AAH 320 g/ha, evaluated three weeks after application
Procedure, shortened: (§2)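 Plants sown in sterilized diluvial soil and grown 14 days in a greenhouse at 25° C to 30° C, then sprayed on the foliage with the compound's emulsion diluted in water to a predetermined herbicide amount. Injury to weeds and crops scored three weeks after application on a visual rating scale.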

SMILES | N: redroot pigweed, herbicidal effect (criteria 0-5)
Cc1nn(C)c(=O)c(-c2c(-c3ccc([S+]([O-])C(C)C)cc3)sc3ccc(F)cc23)c1O (stereo not shown) [2-257] | 5 (Herbicidal rate of 90% or more (almost completely withered))
Cc1nn(C)c(=O)c(-c2c(-c3ccc(S(C)(=O)=O)cc3)sc3ccc(F)cc23)c1O [2-258] | 5 (Herbicidal rate of 90% or more (almost completely withered))

system: blackgrass; test: Test Example 4: herbicidal effect by soil treatment (Table 19, symbol J); format: in vivo, blackgrass (Alopecurus myosuroides); conditions: amount of applied herbicide 320 g/ha
Procedure, shortened: as §1

SMILES | herbicidal effect on J: blackgrass
Cc1nn(C)c(=O)c(-c2c(-c3ccc([S+]([O-])C(C)C)cc3)sc3ccc(F)cc23)c1O (stereo not shown) [2-257] | 1 (Herbicidal rate of 5% or more and less than 20%)
Cc1nn(C)c(=O)c(-c2c(-c3ccc(S(C)(=O)=O)cc3)sc3ccc(F)cc23)c1O [2-258] | 5 (Herbicidal rate of 90% or more (almost completely withered))

system: green foxtail; test: Test Example 4: herbicidal effect by soil treatment (Table 19, symbol G); format: in vivo, green foxtail (Setaria viridis); conditions: amount of applied herbicide 320 g/ha
Procedure, shortened: as §1

SMILES | herbicidal effect on G: green foxtail
Cc1nn(C)c(=O)c(-c2c(-c3ccc([S+]([O-])C(C)C)cc3)sc3ccc(F)cc23)c1O (stereo not shown) [2-257] | 2 (Herbicidal rate of 20% or more and less than 40%)
Cc1nn(C)c(=O)c(-c2c(-c3ccc(S(C)(=O)=O)cc3)sc3ccc(F)cc23)c1O [2-258] | 5 (Herbicidal rate of 90% or more (almost completely withered))

system: barnyard grass; test: Test Example 4: herbicidal effect by soil treatment (Table 19, symbol H); format: in vivo, barnyard grass (Echinochloa crus-galli); conditions: amount of applied herbicide 320 g/ha
Procedure, shortened: as §1

SMILES | herbicidal effect on H: barnyard grass
Cc1nn(C)c(=O)c(-c2c(-c3ccc([S+]([O-])C(C)C)cc3)sc3ccc(F)cc23)c1O (stereo not shown) [2-257] | 4 (Herbicidal rate of 70% or more and less than 90%)
Cc1nn(C)c(=O)c(-c2c(-c3ccc(S(C)(=O)=O)cc3)sc3ccc(F)cc23)c1O [2-258] | 5 (Herbicidal rate of 90% or more (almost completely withered))

system: velvetleaf; test: Test Example 4: herbicidal effect by soil treatment (Table 19, symbol M); format: in vivo, velvetleaf (Abutilon theophrasti); conditions: amount of applied herbicide 320 g/ha
Procedure, shortened: as §1

SMILES | herbicidal effect on M: velvetleaf
Cc1nn(C)c(=O)c(-c2c(-c3ccc([S+]([O-])C(C)C)cc3)sc3ccc(F)cc23)c1O (stereo not shown) [2-257] | 3 (Herbicidal rate of 40% or more and less than 70%)
Cc1nn(C)c(=O)c(-c2c(-c3ccc(S(C)(=O)=O)cc3)sc3ccc(F)cc23)c1O [2-258] | 3 (Herbicidal rate of 40% or more and less than 70%)

system: velvetleaf; test: Test Example 5: herbicidal effect by foliage application, plastic box (Table 20, symbol M); format: in vivo, velvetleaf (Abutilon theophrasti); conditions: foliage application, AAH 320 g/ha, evaluated three weeks after application
Procedure, shortened: as §2

SMILES | M: velvetleaf, herbicidal effect (criteria 0-5)
Cc1nn(C)c(=O)c(-c2c(-c3ccc([S+]([O-])C(C)C)cc3)sc3ccc(F)cc23)c1O (stereo not shown) [2-257] | 5 (Herbicidal rate of 90% or more (almost completely withered))
Cc1nn(C)c(=O)c(-c2c(-c3ccc(S(C)(=O)=O)cc3)sc3ccc(F)cc23)c1O [2-258] | 5 (Herbicidal rate of 90% or more (almost completely withered))

system: windgrass; test: Test Example 5: herbicidal effect by foliage application, plastic box (Table 20, symbol L); format: in vivo, windgrass (Apera spica-venti); conditions: foliage application, AAH 320 g/ha, evaluated three weeks after application
Procedure, shortened: as §2

SMILES | L: windgrass, herbicidal effect (criteria 0-5)
Cc1nn(C)c(=O)c(-c2c(-c3ccc([S+]([O-])C(C)C)cc3)sc3ccc(F)cc23)c1O (stereo not shown) [2-257] | 5 (Herbicidal rate of 90% or more (almost completely withered))
Cc1nn(C)c(=O)c(-c2c(-c3ccc(S(C)(=O)=O)cc3)sc3ccc(F)cc23)c1O [2-258] | 5 (Herbicidal rate of 90% or more (almost completely withered))

system: persian speedwell; test: Test Example 4: herbicidal effect by soil treatment (Table 19, symbol R); format: in vivo, Persian speedwell (Veronica persica); conditions: amount of applied herbicide 320 g/ha
Procedure, shortened: as §1

SMILES | herbicidal effect on R: persian speedwell
Cc1nn(C)c(=O)c(-c2c(-c3ccc([S+]([O-])C(C)C)cc3)sc3ccc(F)cc23)c1O (stereo not shown) [2-257] | 5 (Herbicidal rate of 90% or more (almost completely withered))
Cc1nn(C)c(=O)c(-c2c(-c3ccc(S(C)(=O)=O)cc3)sc3ccc(F)cc23)c1O [2-258] | 5 (Herbicidal rate of 90% or more (almost completely withered))

system: chickweed; test: Test Example 5: herbicidal effect by foliage application, plastic box (Table 20, symbol P); format: in vivo, common chickweed (Stellaria media); conditions: foliage application, AAH 320 g/ha, evaluated three weeks after application
Procedure, shortened: as §2

SMILES | P: chickweed, herbicidal effect (criteria 0-5)
Cc1nn(C)c(=O)c(-c2c(-c3ccc([S+]([O-])C(C)C)cc3)sc3ccc(F)cc23)c1O (stereo not shown) [2-257] | 5 (Herbicidal rate of 90% or more (almost completely withered))
Cc1nn(C)c(=O)c(-c2c(-c3ccc(S(C)(=O)=O)cc3)sc3ccc(F)cc23)c1O [2-258] | 5 (Herbicidal rate of 90% or more (almost completely withered))

system: lambsquarters; test: Test Example 4: herbicidal effect by soil treatment (Table 19, symbol O); format: in vivo, lambsquarters (Chenopodium album); conditions: amount of applied herbicide 320 g/ha
Procedure, shortened: as §1

SMILES | herbicidal effect on O: lambsquarters
Cc1nn(C)c(=O)c(-c2c(-c3ccc([S+]([O-])C(C)C)cc3)sc3ccc(F)cc23)c1O (stereo not shown) [2-257] | 5 (Herbicidal rate of 90% or more (almost completely withered))
Cc1nn(C)c(=O)c(-c2c(-c3ccc(S(C)(=O)=O)cc3)sc3ccc(F)cc23)c1O [2-258] | 4 (Herbicidal rate of 70% or more and less than 90%)

system: wild oat; test: Test Example 4: herbicidal effect by soil treatment (Table 19, symbol I); format: in vivo, wild oat (Avena fatua); conditions: amount of applied herbicide 320 g/ha
Procedure, shortened: as §1

SMILES | herbicidal effect on I: wild oat
Cc1nn(C)c(=O)c(-c2c(-c3ccc([S+]([O-])C(C)C)cc3)sc3ccc(F)cc23)c1O (stereo not shown) [2-257] | 0 (Herbicidal rate of 5% or less (almost no effect))
Cc1nn(C)c(=O)c(-c2c(-c3ccc(S(C)(=O)=O)cc3)sc3ccc(F)cc23)c1O [2-258] | 3 (Herbicidal rate of 40% or more and less than 70%)

system: lambsquarters; test: Test Example 5: herbicidal effect by foliage application, plastic box (Table 20, symbol O); format: in vivo, lambsquarters (Chenopodium album); conditions: foliage application, AAH 320 g/ha, evaluated three weeks after application
Procedure, shortened: as §2

SMILES | O: lambsquarters, herbicidal effect (criteria 0-5)
Cc1nn(C)c(=O)c(-c2c(-c3ccc([S+]([O-])C(C)C)cc3)sc3ccc(F)cc23)c1O (stereo not shown) [2-257] | 5 (Herbicidal rate of 90% or more (almost completely withered))
Cc1nn(C)c(=O)c(-c2c(-c3ccc(S(C)(=O)=O)cc3)sc3ccc(F)cc23)c1O [2-258] | 5 (Herbicidal rate of 90% or more (almost completely withered))

system: southern crabgrass; test: Test Example 4: herbicidal effect by soil treatment (Table 19, symbol F); format: in vivo, southern crabgrass (Digitaria ciliaris); conditions: amount of applied herbicide 320 g/ha
Procedure, shortened: as §1

SMILES | herbicidal effect on F: southern crabgrass
Cc1nn(C)c(=O)c(-c2c(-c3ccc([S+]([O-])C(C)C)cc3)sc3ccc(F)cc23)c1O (stereo not shown) [2-257] | 3 (Herbicidal rate of 40% or more and less than 70%)
Cc1nn(C)c(=O)c(-c2c(-c3ccc(S(C)(=O)=O)cc3)sc3ccc(F)cc23)c1O [2-258] | 4 (Herbicidal rate of 70% or more and less than 90%)

system: Italian ryegrass; test: Test Example 5: herbicidal effect by foliage application, plastic box (Table 20, symbol K); format: in vivo, Italian ryegrass (Lolium multiflorum); conditions: foliage application, AAH 320 g/ha, evaluated three weeks after application
Procedure, shortened: as §2

SMILES | K: Italian ryegrass, herbicidal effect (criteria 0-5)
Cc1nn(C)c(=O)c(-c2c(-c3ccc([S+]([O-])C(C)C)cc3)sc3ccc(F)cc23)c1O (stereo not shown) [2-257] | 5 (Herbicidal rate of 90% or more (almost completely withered))
Cc1nn(C)c(=O)c(-c2c(-c3ccc(S(C)(=O)=O)cc3)sc3ccc(F)cc23)c1O [2-258] | 5 (Herbicidal rate of 90% or more (almost completely withered))

system: oval-leafed pondweed; test: Test Example 1: herbicidal activity, application before weed generation under submerged conditions (Table 16, symbol C); format: in vivo, oval-leafed pondweed (Monochoria vaginalis); conditions: 320 g/ha applied herbicide
Procedure, shortened: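 Alluvial soil was flooded to 4 cm depth, weed seeds were sown mixed and 2.5-leaf rice seedlings were transplanted. On sowing day, the compound's emulsion, diluted in water to a set dose, was applied to the water surface. Plants grew at 25–30 °C and were scored 0–5 after three weeks.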

SMILES | Herbicidal effect on C: oval-leafed pondweed (grade 0-5)
Cc1nn(C)c(=O)c(-c2c(-c3ccc([S+]([O-])C(C)C)cc3)sc3ccc(F)cc23)c1O (stereo not shown) [2-257] | 2 (Herbicidal rate of 20% or more and less than 40%)
Cc1nn(C)c(=O)c(-c2c(-c3ccc(S(C)(=O)=O)cc3)sc3ccc(F)cc23)c1O [2-258] | 0 (Herbicidal rate of 5% or less (almost no effect))

system: Japanese bulrush; test: Test Example 2: herbicidal activity, application during weed generation under submerged conditions (Table 17, symbol B); format: in vivo, Japanese bulrush (Schoenoplectus juncoides); conditions: AAH 320 g/ha; application during weed generation, submerged conditions
Procedure, shortened: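 Steps: fill Wagner pots with alluvial soil; add water to give 4 cm depth; sow the species mixed; grow under glass at 25–30° C.; at 1–2 leaves apply water-diluted emulsion formulation to the water surface at a fixed herbicide amount; score after 3 weeks.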

SMILES | herbicidal effect rating, B: Japanese bulrush
Cc1nn(C)c(=O)c(-c2c(-c3ccc([S+]([O-])C(C)C)cc3)sc3ccc(F)cc23)c1O (stereo not shown) [2-257] | 0 (Herbicidal rate of 5% or less (almost no effect))
Cc1nn(C)c(=O)c(-c2c(-c3ccc(S(C)(=O)=O)cc3)sc3ccc(F)cc23)c1O [2-258] | 0 (Herbicidal rate of 5% or less (almost no effect))
